Assay results taken from patent US8927767B2, “Crystalline polymorphs of acetyl-glycine-beta-alanine and process of making the same” (Corum Inc., priority 2013, dated 2015).

How the values were obtained:
[1] = Long term storage stability by powder X-ray diffraction; format: physicochemical; details: room temperature for 1 year without any humidity controlling
Experimental: (§1) The procedure of powder X-ray diffraction test used for obtaining FIG. 1, FIG. 2, FIG. 7 and FIG. 8 is described as follows:
(§2) The crystalline polymorphs of acetyl-glycine-beta-alanine was analyzed by an X-ray powder Diffractometer, Bruker D8 Advanced, equipped with a Cu anode (λ=1.540600 Angstrom). X-ray source operated at 40 kV, 40 mA. The measuring 2-theta range was from about 5 to 60 degree and step width was 0.05 degree.
Long term storage stability can be found in both crystalline polymorph A and crystalline polymorph B of acetyl-glycine-beta-alanine. The powder X-ray diffraction pattern of the crystalline polymorph A and crystalline polymorph B are shown as FIG. 1 and FIG. 2, wherein the crystalline polymorph A and crystalline polymorph B were stored at room temperature for 1 year without any humidity controlling.

[2] = Solubility study in different solvents (HPLC); format: physicochemical; details: for Solubility: room temperature, 30 min
Experimental: The Solubility Study of Crystalline Polymorph A and Polymorph B of Acetyl-Glycine-Beta-Alanine
According to the theory of thermodynamic of polymorphism, the most thermodynamic stable crystalline polymorph has lowest solubility. The solubility of both of the crystalline polymorph A and polymorph B of acetyl-glycine-beta-alanine were measured in different solvents.
The solubility measurement procedure was described as the following. Prepared a saturated acetyl-glycine-beta-alanine solution with 1 gram of test solvents and then stir it for 30 min at room temperature. Collected the solution through a filter and used HPLC to analyze its solubility. The solubility was represented by mg of the polymorphs/grams of the solvent.

[3] = Thermal stability study by powder X-ray diffraction; format: physicochemical; details: 140° C. oven with air circulation for 4 hours
Experimental: as §1, §2
Thermal Stability Study for Both of Crystalline Polymorph A and Crystalline Polymorph B of Acetyl-Glycine-Beta-Alanine:
The crystalline polymorph A of acetyl-glycine-beta-alanine and crystalline polymorph B of acetyl-glycine-beta-alanine were stored at 140° C. oven with air circulation for 4 hours, and then analyzed with powder X-ray diffraction.

[4] = Thermodynamic stable crystalline polymorph study: slurry equilibrium; format: physicochemical; details: 5 g polymorph A + 5 g polymorph B in isopropanol/water 100 g/10 g; 40 to 45° C. 8 hours, then 25 to 30° C. 48 hours
Experimental: Thermodynamic Stable Crystalline Polymorph Study: Slurry Equilibrium
Both of 5 grams of crystalline polymorph A and 5 grams of crystalline polymorph B of acetyl-glycine-beta-alanine were put into a flask. 100 grams of isopropanol and 10 grams of water were added into the flask to form a mixture. The mixture was stirred at 40 to 45° C. for 8 hours and then at 25 to 30° C. for 48 hours. The mixture was cooled to 15 to 20° C. and the crystalline was filtered out. The crystalline was dried and analyzed with powder X-ray diffraction and Fourier transform infrared spectrum.

[5] = taught in U.S. patent application Ser. No. 13/128,446; cited from earlier work
melanin formation = details: taught in U.S. patent application Ser. No. 13/128,446; cited from earlier work
IL-6 = experiment: In vitro anti-inflammation study, IL-6 level after UVB exposure; format: cell-based; details: human epidermal keratinocytes after exposure on UVB light
[6] = tested on: tissue model of the human epidermis prepared from cultured human keratinocytes and melanocytes; experiment: Ex vivo whitening test in tissue model of the human epidermis; format: cell-based; details: 2% of acetyl-glycine-beta-alanine, 9 day
age spot = experiment: In vivo human study, spot-brightening; details: after 14 days
IL8 = experiment: In vitro anti-inflammation study, IL8 level after UVB exposure; format: cell-based; details: human epidermal keratinocytes after exposure on UVB light
[7] = Ethanol/water: 95/5 (weight ratio)
[8] = Isopropanol/water: 3/1 (weight ratio)

CC(=O)NCC(=O)NCCC(=O)O [crystalline polymorph A, acetyl-glycine-beta-alanine]
long term storage stability (powder X-ray diffraction pattern) [1]: not changed | Solubility [2, 7]: 18.4 mg/g | Solubility [2, 8]: 62.3 mg/g | Solubility ([2]; Methanol): 26.5 mg/g | Solubility ([2]; Water): 177.0 mg/g | thermodynamic stability (from solubility results) ([2]; concluded from lower solubility in various solvents): thermodynamically stable | thermal stability (powder X-ray diffraction pattern) [3]: still not changed | crystalline form obtained after slurry equilibrium [4]: the obtained crystalline was crystalline polymorph A

CC(=O)NCC(=O)NCCC(=O)O [crystalline polymorph B, acetyl-glycine-beta-alanine]
long term storage stability (powder X-ray diffraction pattern) [1]: not changed | Solubility [2, 7]: 23.9 mg/g | Solubility [2, 8]: 76.4 mg/g | Solubility ([2]; Methanol): 32.4 mg/g | Solubility ([2]; Water): 223.2 mg/g | thermal stability (powder X-ray diffraction pattern) [3]: changed

CC(=O)NCC(=O)NCCC(=O)O [acetyl-glycine-beta-alanine]
color stability in the cosmetic formulation [5]: good color stability | inhibiting melanin formation (melanin formation): capable of inhibiting melanin formation | IL-6 level (IL-6): reduced | existing melanin level (whitening efficacy) [6]: −30% | age spot reduction (spot-brightening) (age spot): 51.67% | IL8 level (IL8): reduced
